# In the NIST ThermoML archive (doi:10.1016/j.jct.2015.07.039):
# ± gives the expanded uncertainty stated by the source.
# Tests used:
# [1] = 298.15 K; 101.33 kPa; Liquid; Vibrating tube method
# [2] = refractive index (Na D-line) (dimensionless); settings: 298.15 K; 101.33 kPa; Liquid; Standard Abbe refractometry
structure (smiles),measurement,setting,value
CCCCl [1-chloropropane],mass density,[1],883.81 ± 0.16 kg/m3
same,refractive index,[2],1.38526 ± 0.00032
